Molecular target: T1, rAr-FAR-1 (Ar-FAR-1) (Aphelenchoides ritzemabosi, UniProt A0A2D0WIZ9)
T1 construct: full-length 181 aa ORF with signal peptide (18 aa, cleavage Ala18/Glu19); E. coli BL21(DE3)
T1 sequence (A0A2D0WIZ9 1-181): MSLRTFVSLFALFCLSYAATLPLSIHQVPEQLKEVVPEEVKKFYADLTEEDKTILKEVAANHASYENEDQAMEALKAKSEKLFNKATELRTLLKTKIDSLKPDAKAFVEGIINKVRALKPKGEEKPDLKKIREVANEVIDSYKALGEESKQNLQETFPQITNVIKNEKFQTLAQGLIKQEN
Assay: fluorescence titration
Type: binding

Row | SMILES | Kd
1 | CN(C)c1cccc2c(S(=O)(=O)NCCCCCCCCCCC(=O)O)cccc12 [DAUDA, 11-(5-dimethylaminonaphthalene-1-sulfonylamino) undecanoic acid] | 40.5 nM
2 | CC1=C(/C=C/C(C)=C/C=C/C(C)=C/CO)C(C)(C)CCC1 [retinol] | 67.9 nM
